The record followed here is patent US20250243488A1, “METHODS OF MODULATING PROGRANULIN EXPRESSION USING ANTISENSE OLIGONUCLEOTIDES TARGETING REGULATORY RNAS” (Camp4 Therapeutics Corporation, priority 2022, published 2025).

Oligonucleotides are written 5' to 3', each unit as a sugar letter and its base; * is a phosphorothioate linkage, no mark a phosphodiester; rarer units and linkages stand in square brackets, end groups in braces. Plain capitals give the bases only. e = 2'-O-(2-methoxyethyl) (MOE); l = locked nucleic acid (LNA); [5mC] = 5-methylcytosine; d = 2'-deoxy (DNA)

This data set relates to GRN mRNA. Nature of the data set: GRN mRNA qPCR in SK-N-AS cells transfected with ASOs. It is filed as cell-based, human. To be noted: SK-N-AS; for hGRN mRNA FC / 120 nM FC (GRN mRNA): 120 nM. How it is done: The best ASOs based on increased GRN mRNA fold-change were selected for further characterization in dose titration studies. Briefly, human neuroblastoma SK-N-AS cells were transfected with 20 to 160 nM of ASOs CO-3423, CO-3431, CO-3463, and CO-3503. A steric non-targeting control ASO (sNTC) was used as a control. Cells were collected for mRNA analysis after 48 hours and GRN mRNA quantified by qPCR. Housekeeping genes for normalization were GAPDH and PPIA, and mRNA fold change (FC) was normalized to sNTC.
36 additional ASOs were designed with different modifications and base walking around selected ASOs. The effect of increasing doses of these ASOs was assessed in the human neuroblastoma cell line SK-N-AS following transfection. Relative GRN mRNA levels in SK-N-AS cells after treatment was assessed 48-hours post-transfection, and data from exemplary ASOs is shown in FIGS. 5A and 5B.
Additional chemical modifications, including LNA, modifications were made to CO-3423. SK-N-AS cells were transfected with increasing concentrations of the LNA/PS modified ASOs and GRN mRNA quantified by qPCR. ASOs including different LNA modifications of CO-3423 had similar efficacy (i.e, similar increased GRN mRNA expression). GRN mRNA was normalized to the average fold-change of cells treated with two steric non-targeting control ASOs (CO-3772 and CO-1589 (sNTC1)).
The effect of ASO length on GRN gene expression modulation was also investigated. SK-N-AS cells were transfected with increasing concentrations of the longer ASOs and GRN mRNA quantified by qPCR. Increasing the length of CO-3423 increased the potency of the ASO, as shown in Table 4. mRNA was normalized to the average fold change of cells treated with two steric non-targeting control ASOs (CO-3772 and CO-1589 (sNTC1)).
To determine whether variations in the PO/PS internucleotide bond linkages impacted the ability of CO-3423 and CO-3431 to modulate gene expression, several modified ASOs based on these parent ASOs were prepared. SK-N-AS cells were transfected with increasing concentrations of the mixed PO/PS bond ASOs described in Tables 5 and 6, and GRN mRNA quantified by qPCR.
GRN mRNA fold-change after treatment with mixed PO/PS bond versions of CO-3423 is shown in Table 5. mRNA was normalized to the average fold change of cells treated with steric nontargeting controls (CO-3772, CO-1589 (sNTC1), and CO-1929 (sNTC3)).
GRN mRNA fold-change after treatment with mixed PO/PS bond versions of CO-3431 is shown in Table 6. mRNA was normalized as described above.
To further assess the effect of additional modifications on the ability of CO-3423 parent ASO to modulate GRN gene expression, additional LNA tiling and PO bond modifications were incorporated to CO-3423. SK-N-AS cells were transfected with increasing concentrations of the modified ASOs and GRN mRNA quantified by qPCR. CO-3423 was used for comparison. GRN mRNA was normalized to the average fold-change of cells treated with a steric non-targeting control ASO, CO-1589 (sNTC1).
To further assess the effect of modifications on the ability of CO-3463 parent ASO to modulate GRN gene expression, ASOs based on this ASOS incorporating additional LNA modifications were prepared and compared to […]. SK-N-AS cells were transfected with increasing concentrations of the ASOs and GRN mRNA quantified by qPCR. GRN mRNA was normalized to the average fold-change of cells treated with a steric non-targeting control ASO, CO-1589 (sNTC1).
68 additional ASOs were designed to target intergenic enhancers (eRNA). 48 hours post-transfection, the cells were collected for GRN mRNA analysis using qPCR. CO-1589, a steric nontargeting control ASO, was used as a control. GRN mRNA was normalized to cells treated with CO-1589.
The best hits from these ASOs were tested in a dose escalation study. Cells were incubated for 48 hours. Subsequently, the cells were collected for mRNA quantification via RT-qPCR. […]
For orientation: In qPCR the cycle at which signal appears reflects the starting amount.

[1] abbreviates: Table 9, 48 hours post-transfection, normalized to CO-1589.
Where [2] appears, read: Table 11, 48 hours, normalized to CO-1589.
[3] abbreviates: Table 12, normalized to CO-1589.
The mark [4] stands for this setting: Table 13, normalized to CO-1589.
The mark [5] stands for this setting: Table 10, 48 hours, normalized to CO-1589.
Where [6] appears, read: Table 6, normalized to CO-3772, CO-1589 and CO-1929.
Where [7] appears, read: Table 3, normalized to CO-3772 and CO-1589 (sNTC1).

Regarding “CO-4627: ASO designed to target intergenic enhancers (eRNA) (antisense eA*e[5mC]*eT*e[5mC]*eA*eA*eT*eG*e[5mC]*eA*eT*eA*eG*e[5mC]*eA*eG*eA*eA*eT*eA)”, the “hGRN mRNA FC” value under setting [1] was 1.3 FC.

On to “CO-6454: ASO designed to target an intragenic enhancer RNA (eRNA) (e[5mC]*e[5mC]*eA*eA*eG*eT*eG*eT*eA*eG*eG*eA*eA*eA*eA*eA*eG*eT*eT*eT)”, for which the “hGRN mRNA FC” value under setting [2] is 1.0 FC.

Take “CO-4609: ASO designed to target intergenic enhancers (eRNA) (antisense e[5mC]*e[5mC]*eA*eA*eT*eA*eA*eA*eG*e[5mC]*e[5mC]*eT*eT*eG*eG*eG*eT*eG*e[5mC]*e[5mC])”: the “hGRN mRNA FC” value under setting [1] was 1.2 FC.

In the case of “CO-6406: ASO based on parent ASO CO-3462 (antisense eG*eG*eT*eA*eG*dG*dA*lG*dA*dA*lT*d[5mC]*dG*l[5mC]*dT*dT*lT*dG*dG*eG*eA*eG*e[5mC]*eA)”, under setting [3], the “30 nM FC (GRN mRNA)” value stood at 1.4 FC, the “60 nM FC (GRN mRNA)” value turned out to be 1.4 FC and the “120 nM FC (GRN mRNA)” value is given as 1.7 FC.

For the substance “CO-6410: ASO based on parent ASO CO-3462 (antisense eT*eAeG*eG*eAeG*eA*eAeT*e[5mC]*eGe[5mC]*eT*eTeT*eG*eGeG*eA*eG)”, under setting [3], the “30 nM FC (GRN mRNA)” value amounted to 1.1 FC, the “60 nM FC (GRN mRNA)” value is 1.0 FC and the “120 nM FC (GRN mRNA)” value is recorded as 1.6 FC.

On to “CO-6452: ASO designed to target an intragenic enhancer RNA (eRNA) (eT*eG*eG*e[5mC]*eT*eG*e[5mC]*e[5mC]*e[5mC]*e[5mC]*eT*e[5mC]*eA*e[5mC]*eG*eT*eT*eT*eG*e[5mC])”, for which, under setting [2], the “hGRN mRNA FC” value was found to be 1.4 FC.

With “CO-6393: ASO based on parent ASO CO-3462 (antisense eT*eA*lG*eG*lA*eG*lA*eA*lT*e[5mC]*lG*e[5mC]*lT*eT*lT*eG*lG*eG*eA*eG)”, under setting [3], the “30 nM FC (GRN mRNA)” value is 0.9 FC, the “60 nM FC (GRN mRNA)” value is 0.7 FC and the “120 nM FC (GRN mRNA)” value was found to be 1.0 FC.

For “CO-6408: ASO based on parent ASO CO-3462 (antisense eT*eA*eG*eGeAeGeA*eA*eT*e[5mC]*eG*e[5mC]*eT*eTeTeGeG*eG*eA*eG)”, under setting [3], the “30 nM FC (GRN mRNA)” value was determined as 1.0 FC, the “60 nM FC (GRN mRNA)” value was 1.1 FC and the “120 nM FC (GRN mRNA)” value is recorded as 1.5 FC.

Turning to “CO-6391: ASO based on parent ASO CO-3462 (antisense eT*eA*eG*eG*eA*lG*eA*eA*lT*e[5mC]*eG*l[5mC]*eT*eT*lT*eG*eG*eG*eA*eG)”, under setting [3], the “30 nM FC (GRN mRNA)” value was determined as 1.3 FC, the “60 nM FC (GRN mRNA)” value is 1.0 FC and the “120 nM FC (GRN mRNA)” value was 1.6 FC.

Take “CO-6428: ASO based on parent ASOs CO-4363 and CO-4364 (eG*eG*eG*eA*e[5mC]*eT*eT*eG*eG*eG*eA*eG*eT*eG*eG*eT*eG*eA*e[5mC]*eT*eG*eA*eA*e[5mC]*e[5mC]*eT)”: under setting [4], the “30 nM FC (GRN mRNA)” value was found to be 1.1 FC, the “60 nM FC (GRN mRNA)” value was found to be 1.4 FC and the “120 nM FC (GRN mRNA)” value is on record as 1.0 FC.

In the case of “CO-4616: ASO designed to target intergenic enhancers (eRNA) (antisense eA*eA*eG*eA*eA*eG*eG*e[5mC]*e[5mC]*eA*eA*eG*e[5mC]*eT*eG*eG*eT*eA*e[5mC]*e[5mC])”, the “hGRN mRNA FC” value under setting [1] was 1.2 FC.

Consider “CO-4622: ASO designed to target intergenic enhancers (eRNA) (antisense eA*e[5mC]*eA*eG*eT*eG*eG*e[5mC]*e[5mC]*eG*e[5mC]*eA*eT*eA*eA*eA*eT*eT*eT*e[5mC])”, for which, where the note is “3.75 nM to 120 nM, 48 hours”, the “hit identification (GRN mRNA dose escalation)” value is on record as “initial hits”. Also, the “hGRN mRNA FC” value under setting [1] was 1.0 FC. In addition, the “3.75 nM FC (GRN mRNA)” value (Table 10, 3.75 nM, 48 hours, normalized to CO-1589) amounted to 1.0 FC. Moreover, the “7.5 nM FC (GRN mRNA)” value (Table 10, 7.5 nM, 48 hours, normalized to CO-1589) is 1.0 FC. Besides, the “15 nM FC (GRN mRNA)” value (Table 10, 15 nM, 48 hours, normalized to CO-1589) amounted to 1.0 FC. Besides, under setting [5], the “30 nM FC (GRN mRNA)” value was 1.0 FC, the “60 nM FC (GRN mRNA)” value is recorded as 1.1 FC and the “120 nM FC (GRN mRNA)” value is recorded as 1.1 FC.

As for “CO-4636: ASO designed to target intergenic enhancers (eRNA) (antisense eG*eG*e[5mC]*eA*eA*eT*eT*eA*e[5mC]*eA*eT*eA*e[5mC]*eA*eT*eG*eA*eG*eG*eA)”, the “hGRN mRNA FC” value under setting [1] is 0.9 FC.

Consider “CO-4590: ASO designed to target intergenic enhancers (eRNA) (antisense eG*eT*e[5mC]*eA*eA*eA*eG*eT*e[5mC]*eG*eA*eG*eG*e[5mC]*e[5mC]*eT*eA*e[5mC]*e[5mC]*e[5mC])”, for which, under setting [1], the “hGRN mRNA FC” value came to 1.3 FC.

As to “CO-4455: mixed PO/PS bond version of CO-3431 (antisense eA*eT*eTeGe[5mC]*eA*eG*eT*eG*eA*e[5mC]*eG*e[5mC]*e[5mC]*e[5mC]*e[5mC]eGeT*eT*eA)”, under setting [6], the “30 nM FC (GRN mRNA)” value stood at 0.5 FC, the “60 nM FC (GRN mRNA)” value stood at 0.4 FC and the “120 nM FC (GRN mRNA)” value was found to be 0.4 FC.

“CO-4614: ASO designed to target intergenic enhancers (eRNA) (antisense eT*eG*eA*e[5mC]*eT*eA*eG*eA*eG*eA*eA*eA*e[5mC]*eG*e[5mC]*eT*eT*eA*eG*eA)”: the “hGRN mRNA FC” value under setting [1] is recorded as 1.2 FC.

In the case of “CO-4595: ASO designed to target intergenic enhancers (eRNA) (antisense eA*eG*e[5mC]*e[5mC]*e[5mC]*eG*eA*e[5mC]*e[5mC]*eT*eT*eG*eA*e[5mC]*eT*eG*eA*eT*eA*eG)”, the “hGRN mRNA FC” value under setting [1] was determined as 1.0 FC.

For the substance “CO-4354: LNA/PS modified ASO based on CO-3423 (antisense eG*eG*eA*l[5mC]*eT*lT*eG*lG*eG*lA*eG*lT*eG*lG*eT*lG*eA*l[5mC]*eT*eG)”, under setting [7], the “30 nM FC (GRN mRNA)” value was found to be 1.6 FC, the “60 nM FC (GRN mRNA)” value stood at 1.9 FC and the “120 nM FC (GRN mRNA)” value worked out at 1.9 FC.

For “CO-6442: ASO designed to target an intragenic enhancer RNA (eRNA) (e[5mC]*eT*eG*eG*eG*eA*eG*e[5mC]*e[5mC]*eT*eG*eG*e[5mC]*eT*eG*eA*eT*eG*e[5mC]*eA)”, the “hGRN mRNA FC” value under setting [2] stood at 1.2 FC.
